The subject of series [1] is mouse allogenic MLR (BALB/c mouse spleen cells stimulated with C57BL/6 mouse spleen cells). Nature of the series: mouse allogenic mixed lymphocyte reaction (MLR), 3H-thymidine uptake. Type of series: cell-based. The protocol: The immunosuppressive activity of the compounds was assayed on the basis of mouse allogenic mixed lymphocyte reaction (hereinafter sometimes abbreviated as MLR). Mouse allogenic MRL was carried out using a mixed culture of BALB/c mouse (H-2^d) spleen cells as the responder cells and mitomycin C-treated C57BL/6 ([…]) mouse spleen cells as the stimulator cells in equal amounts.
The responder cells were prepared as follows:
The spleen was resected from 5- to 6-week-old BALB/c mice, and single cell suspension of spleen cells was prepared by using the RPMI1640 culture medium (containing 60 μg/ml of kanamycin sulfate, 2 mM of L-glutamine, 10 mM of N-2-hydroxyethylpiperazine-N'-2-ethanesulphonate (HEPES) and 0.1% sodium hydrogencarbonate) to which heat-inactivated fetal calf serum (hereinafter sometimes abbreviated as FCS) had been added to 5%. After hemolytic treatment, the cell suspension was adjusted to a concentration of 10^7 cells/ml with the RPMI1640 culture medium supplemented with 10^-4 M 2-mercapto-ethanol and 20% FCS, and was used as the responder cell suspension.
The stimulator cells were prepared as follows: The spleen was resected from 5- to 6-week-old male C57BL/6 mice, and a single cell suspension of spleen cells was prepared by using the RPMI1640 culture medium. After hemolytic treatment, the cells were treated with 40 μg/ml of mitomycin C at 37° C. for 60 minutes. After washing three times, the cell suspension was adjusted to a concentration of 10^7 cells/ml with the RPMI1640 culture medium supplemented with 10^-4 M 2-mercapto-ethanol and 20% FCS, and was used as the stimulator cell suspension.
The blastogenesis of lymphocytes was assayed using ^3 H-thymidine uptake as an index. That is, after termination of culture, 18.5 KBq/well of ^3 H-thymidine was added thereto and the suspension was cultured for 4 hours. Cells were harvested by a cell-harvester, and the radioactivity incorporated into the cells was determined by a liquid scintillation counter, which was used as an index of blastogenesis of lymphocytes in the mouse allogenic MLR. The suppression of the mouse allogenic MLR was evaluated by calculating the percent suppression by the following formula.
The test substance dissolved in methanol was diluted with the RPMI1640 culture medium and put to use.

Series [2] relates to allo-specific cytotoxic antibody in serum of EL4-immunized BALB/c mice. Put plainly: suppression of allo-specific cytotoxic antibody production induced by allogenic cell immunization of mouse. Type of series: in vivo. The protocol: Male 5- to 7-week-old BALB/c mice were immunized with leukemia cell EL4 derived from C57BL/6 mice (10^7 cells/mouse, intraperitoneal administration) in the same way as in Experiment Example 9, and the […] Nine to ten days after immunization, a serum was collected from the mice. Fifty μl of the two-fold serial dilution of the serum, 50 μl of a guinea pig complement and EL4 cell suspension labelled with ^51 Cr as the target cell (5×10^4 cells/ml, 100 μl) were together added to a 96-well microtest plate. After incubation at 37° C. for 1 hour, the amount of ^51 Cr released in the supernatant was measured, and the complement-dependent cytotoxicity was calculated by the following formula. [formula]
The value of allo-specific cytotoxic antibody determined as above was expressed by the titer calculated on the basis of the concentration at which the releasing amount of ^51 Cr was 50% of that of ^51 Cr-labelled target cells treated with 0.1 N HCl.

Series [3] concerns IL-2 production in mouse allogenic MLC. Nature of the series: suppression of IL-2 production in mouse allogenic MLC. Type of series: cell-based. As to the method: Mouse allogenic MLC was carried out as follows:
After termination of culture, the supernatant was collected and used as the supernatant of mouse allogenic MLC.
The IL-2 and IL-3 activities in the supernatant of mouse allogenic MLC were assayed in the same way as in Experiment Example 4.

The next series concerns U937. Put plainly: cytotoxicity to cultured tumor cell line U937. Type of series: cell-based, human.
A short description of series [4]: cytotoxicity to cultured tumor cell line U937. Type of series: cell-based, human. The note with it: human, u937 cells, read-out: Suppression.
Protocol: Cytotoxicity to various human tumor cell lines was examined as follows:
Cells of human cell lines, K562, MOLT4, U937 and HL60 were respectively suspended to the concentration of 4×10^5 cells/ml in the RPMI1640 culture medium supplemented with 20% FCS. Fifty μl of each suspension was added to each well of a 96-well microtest plate to which 50 μl of the test solution had been added. After culturing the suspension at 37° C. in an atmosphere of 5% carbon dioxide for 72 hours, the absorbancy at 570 nm was measured in the same way as with the colorimetry using MTT in Experiment Example 1, and the percent suppression was calculated by the following formula, which was used as an index of cytotoxicity.
[5] abbreviates: Mus musculus, Lymphocyte, 0.0001 μg/ml; Table 1A; read-out: Suppression.
Setting [6] is: Mus musculus, Lymphocyte, 0.001 μg/ml; Table 1A; read-out: Suppression.
[7] abbreviates: Mus musculus, Lymphocyte, 0.01 μg/ml; Table 1A; read-out: Suppression.
The mark [8] stands for this setting: Mus musculus, Lymphocyte, 0.1 μg/ml; Table 1A; read-out: Suppression.
Setting [9] is: Mus musculus, Lymphocyte, 1 μg/ml; Table 1A; read-out: Suppression.
[10] abbreviates: Mus musculus, Lymphocyte; read-out: 50%-inhibition concentration (IC50) in mouse allogenic MLR.
Where [11] appears, read: 0.01 mg/kg/day ip × 5, Table 10A.
Setting [12] is: 0.03 mg/kg/day ip × 5, Table 10A.
[13] abbreviates: 0.1 mg/kg/day ip × 5, Table 10A.
Setting [14] is: 0.3 mg/kg/day ip × 5, Table 10A.
Setting [15] is: 0.3 mg/kg/day po × 5, Table 10B.
Setting [16] is: Mus musculus, Lymphocyte, read-out: Suppression.

Data on three molecules can be found in patent US5068247A, “2-aminopentanoic acid compounds and their use as immunosuppressants” (priority 1989, dated 1991).

Values after ≈ are worked out from the molar mass of the structure shown. Where two headings read alike, the source gives them in different places. Bounds are passed on as bounds.

`CCCCCCC(O)C=CCCCCC=CCC(O)C(O)C(N)(CO)C(=O)O` (centres unmarked) [Example 1]: the 3H-thymidine uptake was 17985 cpm in series [1] (0.0001 μg/ml; Table 1A); 13566 cpm in series [1] (0.001 μg/ml; Table 1A); 11016 cpm in series [1] (0.01 μg/ml; Table 1A); 1020 cpm in series [1] (0.1 μg/ml; Table 1A); 919 cpm in series [1] (1 μg/ml; Table 1A). In addition, the inhibition at 0.0001 µg/mL in series [1] (setting [5]) stood at 2.7%. In addition, in series [1] (setting [6]), the inhibition at 0.001 µg/mL is 29%. Further, in series [1] (setting [7]), the inhibition at 0.01 µg/mL was 44.1%. Moreover, in series [1] (setting [8]), the inhibition at 0.1 µg/mL amounted to 100%. In series [1] (setting [9]), the inhibition at 1 µg/mL stood at 100%. The IC50 in series [1] (setting [10]) amounted to 0.013 µg/mL (≈ 0.0324 µM).
In the case of `CCCCCCCCCCCCCCCC[C@@H](O)[C@H](O)[C@@](N)(CO)C(=O)O` [Example 2], the “Allogenic cell-specific antibody in serum, suppression” value was 0% in series [2] (setting [11]); 0% in series [2] (setting [12]); 0% in series [2] (setting [13]); 39.9% in series [2] (setting [14]); 39.3% in series [2] (setting [15]); over 80% in series [2] (1 mg/kg/day ip × 5, Table 10A). In addition, the “Allogenic cell-specific antibody in serum, suppression” value in series [2] (1 mg/kg/day po × 5, Table 10B) is 37.9%; in series [2] (3 mg/kg/day ip × 5, Table 10A) it was over 80%; in series [2] (3 mg/kg/day po × 5, Table 10B) it was 58.9%; in series [2] (10 mg/kg/day po × 5, Table 10B), 68.7%. Also, the “Allogenic cell-specific antibody in serum, titer” value was 119 ± 47 in series [2] (setting [11]); 87 ± 55 in series [2] (setting [12]); 89 ± 32 in series [2] (setting [13]); 50 ± 48 in series [2] (setting [14]); 130 ± 45 in series [2] (setting [15]); under 16 in series [2] (1 mg/kg/day ip × 5, Table 10A). The “Allogenic cell-specific antibody in serum, titer” value in series [2] (1 mg/kg/day po × 5, Table 10B) is 133 ± 50; in series [2] (3 mg/kg/day ip × 5, Table 10A) it was under 16; in series [2] (3 mg/kg/day po × 5, Table 10B) it was 88 ± 47; in series [2] (10 mg/kg/day po × 5, Table 10B) it was 67 ± 16. Also, the “allo-specific cytotoxic antibody production in serum (in words)” value in series [2] (intraperitoneal or oral, Tables 10A to 10D) is “strongly suppresses allo-specific cytotoxic antibody production in serum”. In addition, the 3H-thymidine uptake in series [1] (0.001 μg/ml; Table 1A) amounted to 17981 cpm; in series [1] (0.01 μg/ml; Table 1A) it was 12011 cpm; in series [1] (0.1 μg/ml; Table 1A) it was 2329 cpm; in series [1] (1 μg/ml; Table 1A) it was 1869 cpm. The IC50 in series [1] (Mus musculus, Lymphocyte, read-out: 50%-inhibition concentration (IC50) in mouse allogenic MLR) was 0.016 µg/mL (≈ 0.0411 µM). For the same molecule, the inhibition at 0.001 µg/mL in series [1] (setting [16]) came to 2.7%; in series [3] (Mus musculus, 48 h, 0.001 μg/ml), 31.1%. The inhibition at 0.01 µg/mL in series [1] (setting [16]) stood at 38.2%; in series [3] (Mus musculus, 48 h, 0.01 μg/ml), 17.8%. Further, the inhibition at 0.1 µg/mL in series [1] (setting [16]) stood at 95.8%; in series [3] (Mus musculus, 48 h, 0.1 μg/ml), 68.9%. Also, the inhibition at 1 µg/mL in series [1] (setting [16]) turned out to be 98.6%; in series [3] (Mus musculus, 48 h, 1 μg/ml) it was 64.4%. Also, the IL-2 activity was 3.9 U/ml in series [3] (0.0001 μg/ml); 3.1 U/ml in series [3] (0.001 μg/ml); 3.6 U/ml in series [3] (0.01 μg/ml); 1 U/ml in series [3] (0.1 μg/ml); 1.6 U/ml in series [3] (1 μg/ml). The inhibition at 0.0001 µg/mL in series [3] (Mus musculus, 48 h, 0.0001 μg/ml) is 13.3%. Also, the Absorbancy amounted to 0.669 ± 0.030 with U937 (0.1 μg/ml), 0.681 ± 0.009 in the series on U937 (1 μg/ml) and 0.673 ± 0.111 with U937 (10 μg/ml). The values for the cytotoxicity at 72 h in series [4] (1 μg/ml), in series [4] (10 μg/ml) and in series [4] (0.1 μg/ml) were 0.1%, 1.3% and 1.9%, respectively.
Turning to `CCCCCCC1(CCCCCC/C=C/C[C@@H](O)[C@H](O)[C@@](N)(CO)C(=O)O)SCCS1` [Example 3], the 3H-thymidine uptake in series [1] (0.0001 μg/ml; Table 1A) amounted to 17247 cpm; in series [1] (0.001 μg/ml; Table 1A), 16263 cpm; in series [1] (0.01 μg/ml; Table 1A), 13978 cpm; in series [1] (0.1 μg/ml; Table 1A) it was 14747 cpm; in series [1] (1 μg/ml; Table 1A), 631 cpm. For the same molecule, the inhibition at 0.0001 µg/mL in series [1] (setting [5]) came to 7.1%. Further, in series [1] (setting [6]), the inhibition at 0.001 µg/mL stood at 12.9%. For the same molecule, in series [1] (setting [7]), the inhibition at 0.01 µg/mL came out at 26.5%. The inhibition at 0.1 µg/mL in series [1] (setting [8]) came to 21.9%. Moreover, the inhibition at 1 µg/mL in series [1] (setting [9]) was determined as 96.2%. The IC50 in series [1] (setting [10]) came to 0.25 µg/mL (≈ 0.523 µM).
